From patent US11812767B2, “Beverage having Reb D and Reb M” (SUNTORY HOLDINGS LIMITED, priority 2018, dated 2023)
Each block holds one compound with its values, some of them ahead of it.

How the values were obtained:
[1] = Degradation of Reb D and Reb M in phosphate buffer at 40° C. for 8 weeks, analysed by HPLC; type: physicochemical; conditions: for % Reb M degradation 2 weeks: 2 weeks at 40° C.; for % Reb M degradation 4 weeks: 4 weeks at 40° C.; for % Reb M degradation 6 weeks: 6 weeks at 40° C.; for % Reb M degradation 8 weeks: 8 weeks at 40° C.
Protocol: A study was carried out as follows, samples were prepared comprising 50 ppm, 150 ppm, 250 ppm and 400 ppm, of Reb D and samples with the following ratios of Reb D:Reb M 1:4, 1:1, 4:1 wherein the total concentration of the sample was 400 ppm. The samples were prepared in phosphate buffer and the pH was adjusted using phosphoric acid. Samples were prepared at the following pH; 2.0, 2.5, 3.0 and 3.5. These samples were incubated at 40° C. for 8 weeks. This incubation protocol should mimic the degradation at room temperature over 6 months. The amount of Reb D and Reb M in each sample at T=0 was calculated by HPLC this was then used to calculate the amount of remaining Reb M in each sample at each specified time point. Aliquots were taken at 2, 4, 6 and 8 weeks and analysed by HPLC to determine the degradation of Reb D and combinations of Reb D and Reb M over the 8 week study.

[2] = cited from earlier work
[3] = pH 2, Reb D 0.008 % w/w + Reb M 0.032 % w/w
[4] = pH 2, Reb D 0.02 % w/w + Reb M 0.02 % w/w
[5] = pH 2, Reb D 0.032 % w/w + Reb M 0.008 % w/w
[6] = pH 2.5, Reb D 0.008 % w/w + Reb M 0.032 % w/w
[7] = pH 2.5, Reb D 0.02 % w/w + Reb M 0.02 % w/w
[8] = pH 2.5, Reb D 0.032 % w/w + Reb M 0.008 % w/w
[9] = pH 3, Reb D 0.008 % w/w + Reb M 0.032 % w/w
[10] = pH 3, Reb D 0.02 % w/w + Reb M 0.02 % w/w
[11] = pH 3, Reb D 0.032 % w/w + Reb M 0.008 % w/w
[12] = pH 3.5, Reb D 0.008 % w/w + Reb M 0.032 % w/w
[13] = pH 3.5, Reb D 0.02 % w/w + Reb M 0.02 % w/w
[14] = pH 3.5, Reb D 0.032 % w/w + Reb M 0.008 % w/w

- % Reb M degradation 2 weeks [1, 3]: 28%
- % Reb M degradation 4 weeks [1, 3]: 55%
- % Reb M degradation 6 weeks [1, 3]: 71%
- % Reb M degradation 8 weeks [1, 3]: 80%
- % Reb M degradation 2 weeks [1, 4]: 25%
- % Reb M degradation 4 weeks [1, 4]: 56%
- % Reb M degradation 6 weeks [1, 4]: 69%
- % Reb M degradation 8 weeks [1, 4]: 78%
- % Reb M degradation 2 weeks [1, 5]: 35%
- % Reb M degradation 4 weeks [1, 5]: 59%
- % Reb M degradation 6 weeks [1, 5]: 72%
- % Reb M degradation 8 weeks [1, 5]: 80%
- % Reb M degradation 2 weeks [1, 6]: 3%
- % Reb M degradation 4 weeks [1, 6]: 22%
- % Reb M degradation 6 weeks [1, 6]: 31%
- % Reb M degradation 8 weeks [1, 6]: 38%
- % Reb M degradation 2 weeks [1, 7]: 6%
- % Reb M degradation 4 weeks [1, 7]: 20%
- % Reb M degradation 6 weeks [1, 7]: 29%
- % Reb M degradation 8 weeks [1, 7]: 38%
- % Reb M degradation 2 weeks [1, 8]: 4%
- % Reb M degradation 4 weeks [1, 8]: 18%
- % Reb M degradation 6 weeks [1, 8]: 28%
- % Reb M degradation 8 weeks [1, 8]: 38%
- % Reb M degradation 2 weeks [1, 9]: 0%
- % Reb M degradation 4 weeks [1, 9]: 11%
- % Reb M degradation 6 weeks [1, 9]: 15%
- % Reb M degradation 8 weeks [1, 9]: 17%
- % Reb M degradation 2 weeks [1, 10]: 0%
- % Reb M degradation 4 weeks [1, 10]: 10%
- % Reb M degradation 6 weeks [1, 10]: 14%
- % Reb M degradation 8 weeks [1, 10]: 17%
- % Reb M degradation 2 weeks [1, 11]: 0%
- % Reb M degradation 4 weeks [1, 11]: 7%
- % Reb M degradation 6 weeks [1, 11]: 12%
- % Reb M degradation 8 weeks [1, 11]: 15%
- % Reb M degradation 2 weeks [1, 12]: 0%
- % Reb M degradation 4 weeks [1, 12]: 4%
- % Reb M degradation 6 weeks [1, 12]: 4%
- % Reb M degradation 8 weeks [1, 12]: 6%
- % Reb M degradation 2 weeks [1, 13]: 0%
- % Reb M degradation 4 weeks [1, 13]: 3%
- % Reb M degradation 6 weeks [1, 13]: 4%
- % Reb M degradation 8 weeks [1, 13]: 7%
- % Reb M degradation 2 weeks [1, 14]: 0%
- % Reb M degradation 4 weeks [1, 14]: 0%
- % Reb M degradation 6 weeks [1, 14]: 2%
- % Reb M degradation 8 weeks [1, 14]: 5%
Compound: C=C1C[C@@]23CC[C@H]4[C@@](C)(CCC[C@@]4(C)C(=O)O[C@@H]4O[C@H](CO)[C@@H](O)[C@H](O[C@@H]5O[C@H](CO)[C@@H](O)[C@H](O)[C@H]5O)[C@H]4O[C@@H]4O[C@H](CO)[C@@H](O)[C@H](O)[C@H]4O)[C@@H]2CC[C@]1(O[C@@H]1O[C@H](CO)[C@@H](O)[C@H](O[C@@H]2O[C@H](CO)[C@@H](O)[C@H](O)[C@H]2O)[C@H]1O[C@@H]1O[C@H](CO)[C@@H](O)[C@H](O)[C@H]1O)C3 [Reb M, rebaudioside M]
- Sweetness potency (relative to sucrose) [2]: 200-250

Compound: C=C1C[C@@]23CC[C@H]4[C@@](C)(CCC[C@@]4(C)C(=O)O[C@@H]4O[C@H](CO)[C@@H](O)[C@H](O)[C@H]4O)[C@@H]2CC[C@]1(O[C@@H]1O[C@H](CO)[C@@H](O)[C@H](O[C@@H]2O[C@H](CO)[C@@H](O)[C@H](O)[C@H]2O)[C@H]1O[C@@H]1O[C@H](CO)[C@@H](O)[C@H](O)[C@H]1O)C3 [Rebaudioside A]
- Sweetness potency (relative to sucrose) [2]: 200-300

Compound: C=C1C[C@@]23CC[C@H]4[C@@](C)(CCC[C@@]4(C)C(=O)O[C@@H]4O[C@H](CO)[C@@H](O)[C@H](O)[C@H]4O[C@@H]4O[C@H](CO)[C@@H](O)[C@H](O)[C@H]4O)[C@@H]2CC[C@]1(O[C@@H]1O[C@H](CO)[C@@H](O)[C@H](O)[C@H]1O[C@@H]1O[C@H](CO)[C@@H](O)[C@H](O)[C@H]1O)C3 [Rebaudioside E]
- Sweetness potency (relative to sucrose) [2]: 174

Compound: C=C1C[C@@]23CC[C@H]4[C@@](C)(CCC[C@@]4(C)C(=O)O[C@@H]4O[C@H](CO)[C@@H](O)[C@H](O)[C@H]4O)[C@@H]2CC[C@]1(O[C@@H]1O[C@H](CO)[C@@H](O)[C@H](O)[C@H]1O)C3 [Rubusoside]
- Sweetness potency (relative to sucrose) [2]: 114

Compound: C=C1C[C@@]23CC[C@H]4[C@@](C)(CCC[C@@]4(C)C(=O)O)[C@@H]2CC[C@]1(O[C@@H]1O[C@H](CO)[C@@H](O)[C@H](O)[C@H]1O[C@@H]1O[C@H](CO)[C@@H](O)[C@H](O)[C@H]1O)C3 [Steviolbioside]
- Sweetness potency (relative to sucrose) [2]: 90

Compound: C=C1C[C@@]23CC[C@H]4[C@@](C)(CCC[C@@]4(C)C(=O)O[C@@H]4O[C@H](CO)[C@@H](O)[C@H](O)[C@H]4O)[C@@H]2CC[C@]1(O[C@@H]1O[C@H](CO)[C@@H](O)[C@H](O)[C@H]1O[C@@H]1O[C@H](CO)[C@@H](O)[C@H](O)[C@H]1O)C3 [Stevioside]
- Sweetness potency (relative to sucrose) [2]: 150-250

Compound: Rebaudioside B
- Sweetness potency (relative to sucrose) [2]: 150

Compound: Rebaudioside C
- Sweetness potency (relative to sucrose) [2]: 30

Compound: Rebaudioside F
- Sweetness potency (relative to sucrose) [2]: 200
